From patent US20190160035A1, “METHOD OF TREATMENT” (QBIOTICS LIMITED, priority 2016, published 2019)
Entries after “also recorded” stand apart in the source; their conditions may differ.

Assay: Example 7: injection site abnormalities after IVP dosing (VCOG CTCAE)
Type: in vivo, dogs
Parameters: key to VCOG CTCAE Magnitude of injection site abnormality: Grade 1: Mild; asymptomatic or mild symptoms; clinical signs or diagnostic observations only; intervention not indicated; key to VCOG CTCAE Relationship to IVP of injection site abnormality: Unrelated: Clearly not related to IVP; Unlikely: Doubtfully related to IVP; Possible: May be related to IVP; Probably: Likely related to IVP; Definite: Clearly related to IVP
Text: Injection site abnormalities were reported within the immediate post-injection period for six cases. […] An analgesic was prescribed to start on day 0 for one of the six cases (SI-11). […] The VCOG CTCAE classifications of these injection site abnormalities for magnitude and relationship to IVP as determined by the investigator are listed in Table 35.

[1] = immediate post-injection period

C/C=C(\C)C(=O)O[C@@H]1[C@@H](C)[C@@]2(O)[C@H]([C@@H]3C(C)(C)[C@]13OC(=O)[C@@H](C)CC)[C@@H]1O[C@]1(CO)[C@@H](O)[C@]1(O)C(=O)C(C)=C[C@H]12 [Compound 1, 12-tigloyl-13-(2-methylbutanoyl)-6,7-epoxy-4,5,9,12,13,20-hexahydroxy-1-tigliaen-3-one]
Number of cases with injection site abnormalities in the immediate post-injection period (11 cases): six
Number of cases that exhibited restlessness [1]: three
Number of cases that experienced pain [1]: Three
Day by which injection site abnormalities resolved (pain and restlessness): ≤ 1 days
VCOG CTCAE Relationship to IVP of injection site abnormality (per case, as determined by the investigator): Definite; also recorded: Possible; also recorded: Probable
VCOG CTCAE Magnitude of injection site abnormality (per case, immediate post-injection period): Grade 1^f
